In PubChem BioAssay (NCI) one finds GI50 and TGI data, which are given here for twelve compounds.

Among the test systems are A498 renal; CAKI-1 renal; HCC-2998 colon; M14 melanoma; MCF7 breast; MOLT-4 leukemia; NCI/ADR-RES ovarian; SK-MEL-28 melanoma; UACC-257 melanoma; UACC-62 melanoma.
Holding throughout (experiment): NCI anticancer screen, dose series, 48 h

SMILES strings stand for the structures. Several values for one entry are separate records, joined by “and”; a condition that tells them apart may be missing. Equal values may be shown once.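 Briefly, cells in 96-well plates were exposed to five compound concentrations for 48 h, and endpoints were estimated by linear interpolation. The concentration for 50% growth inhibition is given as GI50. TGI: total growth inhibition.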 Where only a bound is given, the exact number is not on record here.

As to `Nc1nc(/C=C\c2ccccc2)nc(N2CCN(c3ccccc3)CC2)n1`, the GI50 in the assay with A498 renal was 35100 nM; with CAKI-1 renal, 15600 nM; in the assay with HCC-2998 colon, 17900 nM; in the assay with M14 melanoma it was 30200 nM; with MCF7 breast it was 26500 nM; in the assay with MOLT-4 leukemia, 36800 nM. Also, the GI50 in the assay with NCI/ADR-RES ovarian is 25500 nM; with SK-MEL-28 melanoma it was 30900 nM; in the assay on UACC-257 melanoma it was 29100 nM; with UACC-62 melanoma, 26000 nM. Besides, the TGI in the assay with A498 renal is 87900 nM; in the assay on CAKI-1 renal, 43600 nM; with HCC-2998 colon, 41500 nM; in the assay with M14 melanoma, greater than 100000 nM; in the assay with MCF7 breast, 84100 nM; in the assay with MOLT-4 leukemia, greater than 100000 nM. In addition, the TGI in the assay on NCI/ADR-RES ovarian was 93300 nM; in the assay on SK-MEL-28 melanoma it was 79600 nM; in the assay with UACC-257 melanoma, 68500 nM; with UACC-62 melanoma it was 91600 nM.

Turning to `CC(=O)c1cc(C(=O)c2ccc3c(c2)Sc2ccccc2N3)n2ccccc12`, the GI50 in the assay on A498 renal is 2.25 nM and 3.32 nM; with CAKI-1 renal, 3.68 nM and 3.69 nM; in the assay with HCC-2998 colon, 19.9 nM and 29.5 nM; in the assay on M14 melanoma, 3.38 nM and 3.32 nM; in the assay with MCF7 breast, 3.44 nM and 3.32 nM; in the assay with MOLT-4 leukemia it was 6.23 nM and 3.32 nM. Moreover, the GI50 in the assay with NCI/ADR-RES ovarian is 3.93 nM and 3.32 nM; in the assay with UACC-257 melanoma it was 3.32 nM; with UACC-62 melanoma, 2.93 nM and 3.32 nM. In addition, the TGI in the assay with CAKI-1 renal is greater than 33200 nM; in the assay with HCC-2998 colon it was greater than 33200 nM; with M14 melanoma, greater than 33200 nM; in the assay with MCF7 breast it was greater than 33200 nM; in the assay with MOLT-4 leukemia it was greater than 33200 nM; with NCI/ADR-RES ovarian, 1860 nM. The TGI in the assay with SK-MEL-28 melanoma, in the assay with UACC-257 melanoma and in the assay with UACC-62 melanoma was greater than 33200 nM in each case.

Regarding `O=C1C=CC(=O)c2c(O)c3c(c(O)c21)C[C@H](O)[C@H](O)[C@@H]3O`, the TGI in the assay on A498 renal is 13300 nM; in the assay on CAKI-1 renal it was 4380 nM; with HCC-2998 colon, 21300 nM; in the assay on M14 melanoma, 3860 nM; in the assay on MCF7 breast, 3490 nM; in the assay on MOLT-4 leukemia, greater than 23600 nM. Moreover, the TGI in the assay with NCI/ADR-RES ovarian worked out at 8160 nM; in the assay on SK-MEL-28 melanoma it was 5380 nM; in the assay with UACC-257 melanoma, 2640 nM; in the assay on UACC-62 melanoma it was 10100 nM.

`CC(=O)[C@H]1CCC/C=C/[C@@H]2C[C@H](O)C[C@H]2[C@H](O)/C=C/C(=O)O1`: the GI50 was 118 nM in the assay with A498 renal; 645 nM in the assay on CAKI-1 renal; 1330 nM in the assay on HCC-2998 colon; 467 nM with M14 melanoma; 363 nM in the assay with MCF7 breast; 321 nM in the assay on MOLT-4 leukemia. For the same compound, the GI50 was 527 nM in the assay with NCI/ADR-RES ovarian, 261 nM in the assay with SK-MEL-28 melanoma, 332 nM in the assay with UACC-257 melanoma and 498 nM with UACC-62 melanoma. Further, the TGI in the assay with A498 renal is 1370 nM; with CAKI-1 renal it was greater than 23300 nM; in the assay with HCC-2998 colon, 5070 nM; in the assay with M14 melanoma, greater than 25200 nM; in the assay with MCF7 breast it was 5810 nM; with NCI/ADR-RES ovarian it was 3460 nM. Further, the TGI in the assay on SK-MEL-28 melanoma was 923 nM; with UACC-62 melanoma, greater than 100000 nM.

As to `Cc1cc(Nc2cc(N3CCN(C)CC3)nc(/C=C/c3ccccc3)n2)n[nH]1`, the GI50 in the assay with A498 renal was 389 nM; in the assay on CAKI-1 renal, 223 nM; in the assay on HCC-2998 colon, 839 nM; in the assay on M14 melanoma, 343 nM; in the assay on MCF7 breast, 235 nM; with MOLT-4 leukemia it was 186 nM. The GI50 in the assay with NCI/ADR-RES ovarian was 2030 nM; in the assay with SK-MEL-28 melanoma, 1410 nM; in the assay on UACC-257 melanoma it was 1980 nM; in the assay with UACC-62 melanoma it was 1070 nM. The TGI in the assay on A498 renal was 1660 nM; in the assay on CAKI-1 renal, greater than 5380 nM; with HCC-2998 colon, 4420 nM; in the assay with M14 melanoma, greater than 3810 nM; in the assay with MCF7 breast, greater than 7880 nM; in the assay on MOLT-4 leukemia, greater than 10000 nM. The TGI with NCI/ADR-RES ovarian is greater than 10000 nM; in the assay on SK-MEL-28 melanoma, greater than 5480 nM; with UACC-257 melanoma, greater than 5320 nM; with UACC-62 melanoma, greater than 3510 nM.

With `COc1cc(C2c3cc4c(cc3C(OC(=O)C[n+]3ccccc3)C3COC(=O)C23)OCO4)cc(OC)c1OC` (stereo not drawn), the GI50 is less than 10 nM in the assay with A498 renal; less than 18.4 nM with CAKI-1 renal; less than 17.4 nM with HCC-2998 colon; less than 17 nM in the assay on M14 melanoma; less than 14 nM in the assay on MCF7 breast; less than 19.7 nM in the assay on MOLT-4 leukemia. Also, the GI50 was less than 16.9 nM in the assay with NCI/ADR-RES ovarian, 53000 nM in the assay on SK-MEL-28 melanoma, greater than 100000 nM in the assay on UACC-257 melanoma and 10700 nM in the assay with UACC-62 melanoma. The TGI in the assay with A498 renal was 15800 nM; in the assay with CAKI-1 renal, greater than 100000 nM; in the assay with HCC-2998 colon, greater than 20900 nM; with M14 melanoma it was greater than 100000 nM; in the assay with MCF7 breast, greater than 100000 nM; in the assay on MOLT-4 leukemia it was greater than 100000 nM. Moreover, the TGI in the assay with NCI/ADR-RES ovarian, in the assay with SK-MEL-28 melanoma, in the assay on UACC-257 melanoma and in the assay with UACC-62 melanoma was greater than 100000 nM throughout.

For `CCCCCC/C=C\CCCCCCCCCC1=C(CN2CCN(C)CC2)C(=O)C=C(OC)C1=O`, the TGI in the assay on A498 renal worked out at 32600 nM; in the assay on CAKI-1 renal, 7030 nM; in the assay on HCC-2998 colon, 23800 nM; in the assay on M14 melanoma, 7730 nM; in the assay on MCF7 breast, 11600 nM; in the assay with MOLT-4 leukemia, 1650 nM. Besides, the TGI in the assay on NCI/ADR-RES ovarian worked out at 11500 nM; in the assay with SK-MEL-28 melanoma, 28200 nM; in the assay on UACC-257 melanoma, 28600 nM; in the assay with UACC-62 melanoma, 25500 nM.

On to `O=[N+]([O-])c1cc([N+](=O)[O-])c(Nn2c3ccccc3c3ccccc32)c([N+](=O)[O-])c1`, for which the GI50 in the assay with A498 renal was 228 nM; in the assay with CAKI-1 renal it was 238 nM; in the assay with HCC-2998 colon it was 440 nM; with M14 melanoma, 381 nM; in the assay on MCF7 breast it was 292 nM; with MOLT-4 leukemia it was 110 nM. For the same compound, the GI50 in the assay with NCI/ADR-RES ovarian is 317 nM; with SK-MEL-28 melanoma, 483 nM; with UACC-257 melanoma, 312 nM; in the assay on UACC-62 melanoma, 338 nM. The TGI was 624 nM in the assay with A498 renal; 703 nM in the assay with CAKI-1 renal; 12500 nM and 2630 nM in the assay on HCC-2998 colon; 5860 nM with MCF7 breast; greater than 100000 nM in the assay with MOLT-4 leukemia; greater than 100000 nM in the assay on NCI/ADR-RES ovarian. Also, the TGI in the assay on SK-MEL-28 melanoma was 51200 nM and 14900 nM; with UACC-257 melanoma, 1630 nM; in the assay with UACC-62 melanoma, 5670 nM and 1590 nM.

In the case of `COc1ccc([C@@]23Oc4cc(OC)cc(OC)c4[C@]2(O)[C@H](O)[C@H](C(N)=O)[C@H]3c2ccccc2)cc1`, the GI50 with A498 renal was less than 13 nM; in the assay with NCI/ADR-RES ovarian it was 50.4 nM; in the assay with SK-MEL-28 melanoma it was less than 11.6 nM; with UACC-62 melanoma, less than 16 nM. The TGI in the assay with A498 renal is less than 21.5 nM; in the assay with CAKI-1 renal, 83.8 nM; with HCC-2998 colon, 69.7 nM and 19.4 nM; in the assay with M14 melanoma, 23.3 nM and < 10 nM; with MCF7 breast, 112 nM; with MOLT-4 leukemia it was greater than 100000 nM. Further, the TGI is 687 nM and 867 nM in the assay on NCI/ADR-RES ovarian; 206 nM and < 30.4 nM in the assay with UACC-257 melanoma; 106 nM in the assay with UACC-62 melanoma.

Regarding `CCCCCCCC/C=C/CCCCCCCC1=NC(C)(C)CN1CCO`, the GI50 with A498 renal is 2640 nM; in the assay on CAKI-1 renal, 1560 nM; with HCC-2998 colon, 1700 nM; with M14 melanoma, 1740 nM; in the assay with MCF7 breast, 1700 nM; in the assay on MOLT-4 leukemia it was 1440 nM. The GI50 was 3870 nM with NCI/ADR-RES ovarian, 1890 nM in the assay with SK-MEL-28 melanoma, 2000 nM with UACC-257 melanoma and 1720 nM in the assay with UACC-62 melanoma. For the same compound, the TGI in the assay on A498 renal is 16800 nM; with CAKI-1 renal, 3030 nM; in the assay with HCC-2998 colon, 3100 nM; in the assay with M14 melanoma it was 3210 nM; in the assay on MCF7 breast, 3190 nM; with MOLT-4 leukemia it was 4900 nM. Moreover, the TGI in the assay with NCI/ADR-RES ovarian was found to be 13900 nM; in the assay on SK-MEL-28 melanoma it was 3390 nM; in the assay with UACC-257 melanoma, 3810 nM; in the assay with UACC-62 melanoma, 3420 nM.

Consider `CCN(CC)CCCC(C)N/C(=C1\C(=O)NC(=O)\C1=C(/NC(C)CCCN(CC)CC)c1cccc(OC)c1)c1cccc(OC)c1` (stereo not drawn), for which the GI50 with A498 renal is 791 nM; in the assay on CAKI-1 renal, 1030 nM; in the assay with HCC-2998 colon, 845 nM; with M14 melanoma, 932 nM; in the assay with MCF7 breast, 1030 nM; in the assay with MOLT-4 leukemia, 312 nM. The GI50 in the assay on NCI/ADR-RES ovarian is 1360 nM; in the assay on SK-MEL-28 melanoma, 913 nM; in the assay with UACC-257 melanoma it was 842 nM; in the assay on UACC-62 melanoma, 859 nM. For the same compound, the TGI with A498 renal was found to be 5580 nM; in the assay on CAKI-1 renal, 2520 nM; in the assay on HCC-2998 colon, 1610 nM; in the assay on M14 melanoma it was 1750 nM; with MCF7 breast, 3560 nM; in the assay with MOLT-4 leukemia it was 2090 nM. For the same compound, the TGI was determined as 5040 nM with NCI/ADR-RES ovarian, 1670 nM in the assay with SK-MEL-28 melanoma, 1580 nM in the assay with UACC-257 melanoma and 1620 nM with UACC-62 melanoma.

`CCOC(=O)C(C#N)C1=CC(=O)C(=O)c2ccc(O)cc21` (stereo not drawn): the TGI was greater than 100000 nM in the assay with A498 renal; greater than 100000 nM in the assay with CAKI-1 renal; greater than 100000 nM with HCC-2998 colon; 51300 nM in the assay on M14 melanoma; greater than 100000 nM in the assay with MCF7 breast; greater than 100000 nM in the assay with MOLT-4 leukemia. The TGI with NCI/ADR-RES ovarian was greater than 100000 nM; in the assay on SK-MEL-28 melanoma, greater than 100000 nM; in the assay on UACC-257 melanoma, greater than 100000 nM; in the assay on UACC-62 melanoma it was 36900 nM.
